Reference: ChEMBL document CHEMBL1129308, “Design and synthesis of 2-naphthoate esters as selective dopamine D4 antagonists” (J Med Chem, 1996)

How the values were obtained:
D(2) dopamine receptor = D(2) dopamine receptor (Homo sapiens, UniProt P14416); assay: Binding affinity against cloned human Dopamine receptor D2 (long) using [125I]iodosulpiride as radioligand
D(4) dopamine receptor = target: T1, D(4) dopamine receptor (Homo sapiens, UniProt P21917); assay: Binding affinity against cloned human Dopamine receptor D4 using [3H]nemonapride as radioligand
T1 sequence (P21917 whole entry): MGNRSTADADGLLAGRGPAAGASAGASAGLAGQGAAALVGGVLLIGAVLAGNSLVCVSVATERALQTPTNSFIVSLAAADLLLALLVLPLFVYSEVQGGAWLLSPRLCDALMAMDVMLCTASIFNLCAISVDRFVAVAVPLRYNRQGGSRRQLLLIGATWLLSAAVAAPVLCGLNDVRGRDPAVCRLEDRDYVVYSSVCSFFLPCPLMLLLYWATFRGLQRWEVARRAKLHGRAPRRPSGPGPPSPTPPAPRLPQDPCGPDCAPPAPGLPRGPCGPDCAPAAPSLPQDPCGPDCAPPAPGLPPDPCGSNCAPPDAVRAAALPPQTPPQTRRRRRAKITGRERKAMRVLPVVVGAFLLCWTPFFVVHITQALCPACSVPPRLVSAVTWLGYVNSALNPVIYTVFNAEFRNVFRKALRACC

[1] = target: Dopamine receptors; D2 & D4 (Homo sapiens) (UniProt P14416+P21917); assay: Selectivity ratio for binding affinity between D4 and D2 receptor; format: protein assay
Dopamine receptors; D2 & D4 (Homo sapiens), sequence (P14416 whole entry, looked up, one chain of several): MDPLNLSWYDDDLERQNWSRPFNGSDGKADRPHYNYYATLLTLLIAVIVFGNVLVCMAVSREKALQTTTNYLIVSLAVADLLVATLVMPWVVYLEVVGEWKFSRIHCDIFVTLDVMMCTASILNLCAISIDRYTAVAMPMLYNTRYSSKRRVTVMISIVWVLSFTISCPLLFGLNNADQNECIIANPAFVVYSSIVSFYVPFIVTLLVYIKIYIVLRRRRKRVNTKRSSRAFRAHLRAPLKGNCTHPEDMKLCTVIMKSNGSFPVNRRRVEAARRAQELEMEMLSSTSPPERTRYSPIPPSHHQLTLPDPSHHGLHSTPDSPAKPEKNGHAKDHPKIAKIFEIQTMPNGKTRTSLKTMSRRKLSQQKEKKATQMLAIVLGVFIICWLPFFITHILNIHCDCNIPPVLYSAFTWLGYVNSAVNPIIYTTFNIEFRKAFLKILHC

D(2) dopamine receptor, sequence (P14416 whole entry): as the sequence (P14416 whole entry, looked up, one chain of several) above

Ki (D(2) dopamine receptor) | Ki (D(4) dopamine receptor) | Selectivity [1] | Structure (SMILES)
7940 nM | 6.31 nM | 1260 | COc1cc2ccccc2cc1OC(=O)CC1CCN(Cc2ccccc2)CC1
39.8 nM | 3.98 nM | 10 | COc1cc2ccccc2cc1C(=O)NC1CCN(Cc2ccccc2)C1 (stereo not given)
1580 nM | 25.1 nM | 60 | COc1cc2ccccc2cc1OCCC1CCN(Cc2ccccc2)CC1
10000 nM | 20 nM | 500 | COc1cc2ccccc2cc1C(=O)OCC1CCN(Cc2ccccc2)C1 (stereo not given)
3160 nM | 5.01 nM | 630 | COc1cc2ccccc2cc1C(=O)OCC1CCN(Cc2ccccc2)CC1
2000 nM | 25.1 nM | 80 | O=C(OCC1CCN(Cc2ccccc2)CC1)c1ccc(Cl)cc1
126 nM | 20 nM | 6 | COc1cc2ccccc2cc1C(=O)NCC1CCN(Cc2ccccc2)CC1
1000 nM | 31.6 nM | 30 | COc1cc2ccccc2cc1COCC1CCN(Cc2ccccc2)CC1
1260 nM | 200 nM | 6 | COc1cc2ccccc2cc1CC(=O)CC1CCN(Cc2ccccc2)CC1
398 nM | 31.6 nM | 12 | COc1cc2ccccc2cc1C(=O)CCC1CCN(Cc2ccccc2)CC1
